Common to all, as to type: in vivo, C57BL/6J mice
Assay [1] deals with fatty acid synthase (FAS). In words: Hepatic lipid regulating enzyme activity: FAS. Conditions: FIG. 4B, liver cytoplasmic fraction, HFD+5% w/w in diet, 16 weeks. The method, then:
First, 4-week-old male C57BL/6J mice (60 total) were purchased from Jackson Laboratory. The animals were acclimated to the vivarium in a thermo-hygrostat (20-23° C., 45-65%) under a 12 h light/dark cycle and fed a pelletized commercial non-purified diet for 1 week after arrival. The mice were then randomly divided into 6 groups (n=10) and fed the respective experimental diets for 16 weeks: normal diet group (ND, American Institute of Nutrition (AIN)-76 semi-synthetic diet), high-fat diet group (HFD, 20% fat+1% cholesterol based on AIN-76 diet), PSI group (HFD+5% D-psicose, w/w, Sigma Chemical Company), ERY group (HFD+5% erythritol, w/w, Sigma Chemical Company), GLU group (HFD+5% D-glucose, w/w, Sigma Chemical Company), and FRU group (HFD+5% D-fructose, w/w, Sigma Chemical Company). All high-fat diet-fed groups were allowed to ingest the same calories by pair feeding based on the PSI group. The mice had ad libitum access to distilled water during the experimental period. Their feed intakes and body weights were measured daily and biweekly, respectively. The organ weights and the adipose tissue weights of the mice were measured after sacrificing the animals. Samples were prepared and analyzed according to the method developed by Hulcher and Oleson. Specifically, the activity of fatty acid synthase (FAS) as a hepatic lipid regulating enzyme was measured by spectrophotometric assay according to the method described by Nepokroeff et al. Each sample was mixed with 100 μl of cytoplasmic fraction and the mixture was allowed to react at 30° C. for 2 min. A reduction in absorbance at 340 nm was measured. Fatty acid synthase (FAS) activity units were expressed as nanomoles (nmol) of NADPH oxidized for 1 min per mg of cytoplasmic fraction. Fatty acid β-oxidation activity was measured by monitoring the reduction of NAD^+ to NADH in the presence of palmitoyl-CoA, as described by Lazarow. β-oxidation activity units were expressed as nanomoles (nmol) of NADH produced for 1 min per mg of mitochondrial protein.

Assay [2] has as its system high-fat diet-induced obese mice. In words: Adipose tissue morphologies (epididymal WAT, H&E). Conditions: FIG. 5B, 200×, HFD+5% w/w in diet, 16 weeks. The procedure:
(§1) First, 4-week-old male C57BL/6J mice (60 total) were purchased from Jackson Laboratory. The animals were acclimated to the vivarium in a thermo-hygrostat (20-23° C., 45-65%) under a 12 h light/dark cycle and fed a pelletized commercial non-purified diet for 1 week after arrival. The mice were then randomly divided into 6 groups (n=10) and fed the respective experimental diets for 16 weeks: normal diet group (ND, American Institute of Nutrition (AIN)-76 semi-synthetic diet), high-fat diet group (HFD, 20% fat+1% cholesterol based on AIN-76 diet), PSI group (HFD+5% D-psicose, w/w, Sigma Chemical Company), ERY group (HFD+5% erythritol, w/w, Sigma Chemical Company), GLU group (HFD+5% D-glucose, w/w, Sigma Chemical Company), and FRU group (HFD+5% D-fructose, w/w, Sigma Chemical Company). All high-fat diet-fed groups were allowed to ingest the same calories by pair feeding based on the PSI group. The mice had ad libitum access to distilled water during the experimental period. Their feed intakes and body weights were measured daily and biweekly, respectively. The organ weights and the adipose tissue weights of the mice were measured after sacrificing the animals.
Epididymal WATs were removed from the mice in the normal diet group (ND) and high-fat diet groups (HFD, ERY, GLU, FRU, and PSI) and fixed in a buffer solution of 10% formalin. The fixed epididymal WATs were embedded in paraffin. […] sections were prepared from the epididymal WATs and their cross-sections were dyed with hematoxylin and eosin. Stained areas were observed using an optical microscope at a magnification of 200× (Nikon, Tokyo, Japan).

For assay [3], the system named is CD36 (cluster of differentiation 36, 12491). In words: Small intestine mRNA expression, real-time quantitative PCR: CD36. Conditions: FIG. 8, HFD+5% w/w in diet, 16 weeks. The procedure:
as §1
(§2) Samples were prepared and analyzed as previously described. Specifically, total RNA was synthesized into cDNA using a QuantiTect Reverse Transcription kit (QIAGEN Gmb1h, Hilden, Germany). RNA expression was quantified with real-time quantitative PCR using a QuantiTect SYBR Green PCR kit (QIAGEN Gmb1h, Hilden, Germany). Primers were designed to detect CD36 (cluster of differentiation 36, 12491), ApoB48 (apolipoprotein B 48, 238055), FATP4 (fatty acid transporter 4, 26569), ABCG5 (ATP-binding cassette sub-family G member5, 27409), and ABCG8 (ATP-binding cassette sub-family G member8, 67470). GAPDH was used as an internal transcription marker. The reaction was performed a total of 40 cycles (each consisting of 15 sec at 94° C., 30 sec at 58° C., 30 sec at 72° C., and 15 sec at 65° C.). Fluorescence signals were monitored every cycle and the resulting threshold cycles (Ct) were analyzed. mRNA expression in each experimental group was quantified using a CFX96 Real time system (Bio-rad, USA).

Assay [4] concerns FATP4 (fatty acid transporter 4, 26569). In words: Small intestine mRNA expression, real-time quantitative PCR: FATP4. To be noted: FIG. 8, HFD+5% w/w in diet, 16 weeks. The procedure:
as §1, §2

The subject of assay [5] is ApoB48 (apolipoprotein B 48, 238055). In words: Small intestine mRNA expression, real-time quantitative PCR: ApoB48. Conditions: FIG. 8, HFD+5% w/w in diet, 16 weeks. The method, then:
as §1, §2

The test system of assay [6] is ABCG5 (ATP-binding cassette sub-family G member5, 27409). In words: Small intestine mRNA expression, real-time quantitative PCR: ABCG5. Conditions: high-fat diet-fed obese mice. The procedure: (§3) First, 4-week-old male C57BL/6J mice (60 total) were purchased from Jackson Laboratory. The animals were acclimated to the vivarium in a thermo-hygrostat (20-23° C., 45-65%) under a 12 h light/dark cycle and fed a pelletized commercial non-purified diet for 1 week after arrival. […] Their feed intakes and body weights were measured daily and biweekly, respectively. The organ weights and the adipose tissue weights of the mice were measured after sacrificing the animals.
(§4) Samples were prepared and analyzed as previously described. Specifically, total RNA was synthesized into cDNA using a QuantiTect Reverse Transcription kit (QIAGEN Gmb1h, Hilden, Germany). RNA expression was quantified with real-time quantitative PCR using a QuantiTect SYBR Green PCR kit (QIAGEN Gmb1h, Hilden, Germany). […] Fluorescence signals were monitored every cycle and the resulting threshold cycles (Ct) were analyzed. mRNA expression in each experimental group was quantified using a CFX96 Real time system (Bio-rad, USA).

Assay [7] deals with ABCG8 (ATP-binding cassette sub-family G member8, 67470). In words: Small intestine mRNA expression, real-time quantitative PCR: ABCG8. Conditions: high-fat diet-fed obese mice. The method, then:
as §3, §4

The structures appear in SMILES notation.

For the compound `OC[C@@H](O)[C@@H](O)CO` [ERY, erythritol], the “hepatic FAS activity” value in assay [1] was “increased significantly compared to those in the ND group”. In assay [2], the “size of adipocytes in the epididymal WATs” value (“size of adipocytes” below) is listed as “increase in the size of adipocytes”. The “mRNA expression level of CD36 in the small intestine” value (“mRNA expression level of CD36” below) in assay [3] is “significantly higher”. The “mRNA expression level of FATP4 in the small intestine” value (shortened to “mRNA expression level of FATP4”) in assay [4] is “significantly higher”. In assay [5], the “mRNA expression level of ApoB48 in the small intestine” value (from here on “mRNA expression level of ApoB48”) is “significantly higher”.
Take `O=C[C@H](O)[C@@H](O)[C@H](O)[C@H](O)CO` [GLU, D-glucose]: the “hepatic FAS activity” value in assay [1] is on record as “increased significantly compared to those in the ND group”. Moreover, in assay [2], the “size of adipocytes” value is “increase in the size of adipocytes”. Also, in assay [3], the “mRNA expression level of CD36” value is recorded as “significantly higher”. The “mRNA expression level of FATP4” value in assay [4] is “significantly higher”. Moreover, in assay [5], the “mRNA expression level of ApoB48” value is recorded as “significantly higher”.
Take `O=C(CO)[C@H](O)[C@H](O)[C@H](O)CO` [PSI, D-psicose]: the “hepatic FAS activity” value in assay [1] is on record as “decreased significantly compared to those in other high-fat diet groups”. Besides, the “size of adipocytes” value in assay [2] is “relatively small compared to that in the other high-fat diet groups”. The figures for the “mRNA expression level of CD36” value in assay [3] and in assay [3] (listed as D-psicose) were “significantly lower in the PSI group than those in other high-fat diet groups” and “reduces mRNA expression”, respectively. The “mRNA expression level of FATP4” value in assay [4] is listed as “significantly lower in the PSI group than those in other high-fat diet groups”; in assay [4] (listed as D-psicose), “reduces mRNA expression”. In addition, the “mRNA expression level of ApoB48” value in assay [5] is on record as “significantly lower in the PSI group than those in other high-fat diet groups”; in assay [5] (listed as D-psicose), “reduces mRNA expression”. The “mRNA expression of ABCGS (gene involved in lipid excretion)” value in assay [6] was “reduces mRNA expression”. Further, the “mRNA expression of ABCG8 (gene involved in lipid excretion)” value in assay [7] was “reduces mRNA expression”.
For `O=C(CO)[C@@H](O)[C@H](O)[C@H](O)CO` [FRU, D-fructose], the “hepatic FAS activity” value in assay [1] is on record as “increased significantly compared to those in the ND group”. Also, the “size of adipocytes” value in assay [2] was “increase in the size of adipocytes”. For the same compound, the “mRNA expression level of CD36” value in assay [3] is recorded as “significantly higher”. In assay [4], the “mRNA expression level of FATP4” value is “significantly higher”. Also, in assay [5], the “mRNA expression level of ApoB48” value is “significantly higher”.

Source of the values: patent US20180243325A1, “METHOD FOR INHIBITING ABSORPTION OF AND/OR PROMOTING EXCRETION OF LIPIDS USING D-PSICOSE” (CJ CHEILJEDANG CORPORATION, priority 2015, published 2018).
